Each compound was assayed against T1, human CTPS1 (Homo sapiens, UniProt P17812) (assay: Human CTPS1 enzyme inhibition (ADP-Glo Max assay)). Details: human full length CTPS1, 25° C., numeric value printed instead of class symbol, read-out: CTPS1 (Human CTPS1 Enzyme Inhibition, IC50).
T1 construct: purchased Proteros biostructures GmbH
T1 sequence (P17812 1-591): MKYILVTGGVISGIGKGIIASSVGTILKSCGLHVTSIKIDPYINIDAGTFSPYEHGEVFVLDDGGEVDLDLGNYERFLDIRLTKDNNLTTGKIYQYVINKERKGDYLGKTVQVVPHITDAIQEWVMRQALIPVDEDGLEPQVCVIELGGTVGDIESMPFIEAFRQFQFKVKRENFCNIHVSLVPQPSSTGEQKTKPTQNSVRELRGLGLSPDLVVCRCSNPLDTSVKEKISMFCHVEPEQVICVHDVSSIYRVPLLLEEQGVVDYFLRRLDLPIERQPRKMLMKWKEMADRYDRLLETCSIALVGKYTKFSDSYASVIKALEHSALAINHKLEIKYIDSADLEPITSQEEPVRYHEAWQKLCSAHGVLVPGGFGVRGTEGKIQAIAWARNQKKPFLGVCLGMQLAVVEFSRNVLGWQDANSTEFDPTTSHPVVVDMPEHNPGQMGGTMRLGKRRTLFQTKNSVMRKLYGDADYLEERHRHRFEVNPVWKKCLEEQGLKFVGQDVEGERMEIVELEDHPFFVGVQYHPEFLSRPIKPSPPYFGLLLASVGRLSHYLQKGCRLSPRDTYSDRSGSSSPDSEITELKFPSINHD
Format: biochemical
Experimental: The enzyme inhibitory activities of compounds invented against the target of interest were determined using the ADP-GIoTM Max assay (Promega, UK). Assays for human CTPS1 were performed in lx assay buffer containing 50mM Tris, 10mM MgCl2, 0.01% Tween-20, pH to 8.0 accordingly. Finally, immediately before use, L-cysteine was added to the lx assay buffer to a final concentration of 2mM. All reagents are from Sigma-Aldrich unless specified otherwise. Human full length active C-terminal FLAG-Hiss-tag CTPS1 (UniProtKB - P17812, CTPS[1-591]-[…]) was obtained from Proteros biostructures GmbH.
Assay Procedure 3× human CTPS1 protein was prepared in lx assay buffer to the final working protein concentration required for the reaction. A 2uL volume per well of 3x human CTPS1 protein was mixed with 2uL per well of 3× test compound (compound prepared in lx assay buffer to an appropriate final 3× compound concentration respective to the concentration response curve designed for the compounds under test) for 10 minutes at 25° C. The enzymatic reaction was then initiated by addition of a 2uL per well volume of a pre-mixed substrate mix (UltraPure ATP from ADP-GIo™ Max kit (0.31mM), GTP (0.034mM), UTP (0.48mM) and L-glutamine (0.186mM)) and the mixture was incubated for an appropriate amount of time within the determined linear phase of the reaction at 25° C. under sealed plate conditions with constant agitation at 500 revolutions per minute (rpm). ADP-GIo™ Max reagent was added for 60 minutes ([…] per well) and subsequently ADP-GIo™ Max development reagent was added for 60 minutes (12uL per well) prior to signal detection in a microplate reader (EnVision® Multilabel Reader, Perkin Elmer). Following each reagent addition over the course of the assay, assay plates were pulse centrifuged for 30 seconds at 500rpm.
In all cases, the enzyme converts ATP to ADP and the ADP-GIo™ Max reagent subsequently depletes any remaining endogenous ATP in the reaction system. The ADP-GIo™ Max detection reagent converts the ADP that has been enzymatically produced back into ATP and using ATP as a substrate together with luciferin for the enzyme luciferase, light is generated which produces a detectable luminescence. […] The percentage inhibition produced by each concentration of compound was calculated using the equation shown below: […]
Percentage inhibition was then plotted against compound concentration, and the 50% inhibitory concentration (IC50) was determined from the resultant concentration-response curve.

`CS(=O)(=O)Nc1cncc(CC(=O)Nc2ccc(-c3cccnc3)cc2)n1` [P194, 2-(6-(methylsulfonamido)pyrazin-2-yl)-N-(4-(pyridin-3-yl)phenyl)acetamide] showed an IC50 of 58600 nM.

Same assay, conditions: human full length CTPS1, 25° C., read-out: CTPS1 (Human CTPS1 Enzyme Inhibition, IC50 grouped by potency range)

`CCOc1cncc(-c2ccc(C(=O)NC(CC)c3cncc(NS(=O)(=O)C4CC4)n3)c(F)c2)n1` (single isomer, unassigned) [P224, N-(1-(6-(cyclopropanesulfonamido)pyrazin-2-yl)propyl)-4-(6-ethoxypyrazin-2-yl)-2-fluorobenzamide] and `CCOc1cncc(-c2ccc(NC(=O)C(CC)c3cccc(NS(=O)(=O)C4CC4)n3)c(F)c2)n1` (stereo not shown) [P190, 2-(6-(cyclopropanesulfonamido)pyridin-2-yl)-N-(4-(6-ethoxypyrazin-2-yl)-2-fluorophenyl)butanamide] fall in the same range of IC50: 100 to 1000 nM for the first, 100 to 1000 nM for the second.

First: CCC(C(=O)Nc1ccc(-c2cnccn2)cc1F)c1ccnc(NS(=O)(=O)C2CC2)n1 (stereo not shown) [P6, 2-(2-(Cyclopropanesulfonamido)pyrimidin-4-yl)-N-(2-fluoro-4-(pyrazin-2-yl)phenyl)butanamide]
Second: CCC(C(=O)Nc1ccc(-c2cccnc2)cc1F)c1ccnc(NS(=O)(=O)C2CC2)n1 (stereo not shown) [P93, 2-(2-(cyclopropanesulfonamido)pyrimidin-4-yl)-N-(2-fluoro-4-(pyridin-3-yl)phenyl)butanamide]
The IC50 of the first is lower: 100 to 1000 nM for the first, 1000 to 10000 nM for the second. The first is the more potent here.

`CCC(C(=O)Nc1ccc(-c2cncc(C(F)(F)F)c2)cc1)c1ccnc(NS(=O)(=O)C2CC2)n1` (stereo not shown) [P7, 2-(2-(Cyclopropanesulfonamido)pyrimidin-4-yl)-N-(4-(5-(trifluoromethyl)pyridin-3-yl)phenyl)butanamide] and `CCC(C(=O)Nc1ccc(-c2cncc(OCC(F)(F)F)c2)cc1)c1ccnc(NS(=O)(=O)C2CC2)n1` (stereo not shown) [P100, 2-(2-(cyclopropanesulfonamido)pyrimidin-4-yl)-N-(4-(5-(2,2,2-trifluoroethoxy)pyridin-3-yl)phenyl)butanamide] fall in the same range of IC50: 100 to 1000 nM for the first, 100 to 1000 nM for the second.

`CCC(C(=O)Nc1ccc(-c2cncc(OCC(F)(F)F)c2)cn1)c1ccnc(NS(=O)(=O)C2CC2)n1` (stereo not shown) [P85] and `CCC(C(=O)Nc1ccc(-c2cncc(OCC(F)(F)F)c2)cc1F)c1ccnc(NS(=O)(=O)C2CC2)n1` (stereo not shown) [P91, 2-(2-(cyclopropanesulfonamido)pyrimidin-4-yl)-N-(2-fluoro-4-(5-(2,2,2-trifluoroethoxy)pyridin-3-yl)phenyl)butanamide] fall in the same range of IC50: 100 to 1000 nM for the first, 100 to 1000 nM for the second.

First: CCC(C(=O)Nc1ccc(-c2cccnc2)cn1)c1ccnc(NS(=O)(=O)C2CC2)n1 (stereo not shown) [P86, N-([3,3′-bipyridin]-6-yl)-2-(2-(cyclopropanesulfonamido)pyrimidin-4-yl)butanamide]
Second: CCC(C(=O)Nc1ccc(-c2cccnc2)cc1)c1ccnc(NS(=O)(=O)C2CC2)n1 (stereo not shown) [P102, 2-(2-(cyclopropanesulfonamido)pyrimidin-4-yl)-N-(4-(pyridin-3-yl)phenyl)butanamide]
The IC50 of the first is higher: 1000 to 10000 nM for the first, 100 to 1000 nM for the second.

`CCC(C(=O)Nc1ccc(-c2cncc(Cl)c2)cc1F)c1ccnc(NS(=O)(=O)C2CC2)n1` (stereo not shown) [P90, N-(4-(5-chloropyridin-3-yl)-2-fluorophenyl)-2-(2-(cyclopropanesulfonamido)pyrimidin-4-yl)butanamide] and `CCC(C(=O)Nc1ccc(-c2cncc(OC(C)C)c2)cc1F)c1ccnc(NS(=O)(=O)C2CC2)n1` (stereo not shown) [P92, 2-(2-(cyclopropanesulfonamido)pyrimidin-4-yl)-N-(2-fluoro-4-(5-isopropoxypyridin-3-yl)phenyl)butanamide] fall in the same range of IC50: 100 to 1000 nM for the first, 100 to 1000 nM for the second.

`CCC(C(=O)Nc1ccc(-c2cncc(C(F)(F)F)n2)cc1F)c1ccnc(NS(=O)(=O)C2CC2)n1` (stereo not shown) [P94, 2-(2-(cyclopropanesulfonamido)pyrimidin-4-yl)-N-(2-fluoro-4-(6-(trifluoromethyl)pyrazin-2-yl)phenyl)butanamide] and `CCC(C(=O)Nc1ccc(-c2cncc(OC(C)C)n2)cc1F)c1ccnc(NS(=O)(=O)C2CC2)n1` (stereo not shown) [P97, 2-(2-(cyclopropanesulfonamido)pyrimidin-4-yl)-N-(2-fluoro-4-(6-isopropoxypyrazin-2-yl)phenyl)butanamide] cannot be ordered by IC50: at most 100 nM for the first, at most 100 nM for the second.

`CCC(C(=O)Nc1ccc(-c2cncc(C#N)c2)cc1)c1ccnc(NS(=O)(=O)C2CC2)n1` (stereo not shown) [P99, N-(4-(5-cyanopyridin-3-yl)phenyI)-2-(2-(cyclopropanesulfonamido)pyrimidin-4-yl)butanamide] and `CCC(C(=O)Nc1ccc(-c2cncc(OC(C)C)c2)cc1)c1ccnc(NS(=O)(=O)C2CC2)n1` (stereo not shown) [P101, 2-(2-(cyclopropanesulfonamido)pyrimidin-4-yl)-N-(4-(5-isopropoxypyridin-3-yl)phenyl)butanamide] fall in the same range of IC50: 100 to 1000 nM for the first, 100 to 1000 nM for the second.

`CCC(C(=O)Nc1ccc(-c2cncc(Cl)n2)cc1)c1ccnc(NS(=O)(=O)C2CC2)n1` (stereo not shown) [P104, N-(4-(6-chloropyrazin-2-yl)phenyl)-2-(2-(cyclopropanesulfonamido)pyrimidin-4-yl)butanamide] and `CCC(C(=O)Nc1ccc(-c2cncc(OC)n2)cc1)c1ccnc(NS(=O)(=O)C2CC2)n1` (stereo not shown) [P106, 2-(2-(cyclopropanesulfonamido)pyrimidin-4-yl)-N-(4-(6-methoxypyrazin-2-yl)phenyl)butanamide] cannot be ordered by IC50: 100 to 1000 nM for the first, at most 100 nM for the second.

`CCC(C(=O)Nc1ccc(-c2cncc(OC(C)C)n2)cc1)c1ccnc(NS(=O)(=O)C2CC2)n1` (stereo not shown) [P107, 2-(2-(cyclopropanesulfonamido)pyrimidin-4-yl)-N-(4-(6-isopropoxypyrazin-2-yl)phenyl)butanamide] and `CCC(C(=O)Nc1ccc(-c2cnccn2)cc1)c1ccnc(NS(=O)(=O)C2CC2)n1` (stereo not shown) [P109, 2-(2-(cyclopropanesulfonamido)pyrimidin-4-yl)-N-(4-(pyrazin-2-yl)phenyl)butanamide] cannot be ordered by IC50: at most 100 nM for the first, 100 to 1000 nM for the second.

First: CC(C(=O)Nc1ccc(-c2cccnc2)cc1)c1ccnc(NS(=O)(=O)C2CC2)n1 (stereo not shown) [P111, 2-(2-(cyclopropanesulfonamido)pyrimidin-4-yl)-N-(4-(pyridin-3-yl)phenyl)propanamide]
Second: CCC(C(=O)Nc1ccc(-c2cncc(Cl)c2)cc1)c1cccc(NS(=O)(=O)C2CC2)n1 (stereo not shown) [P189, N-(4-(5-chloropyridin-3-yl)phenyl)-2-(6-(cyclopropanesulfonamido)pyridin-2-yl)butanamide]
The IC50 of the first is lower: 100 to 1000 nM for the first, 1000 to 10000 nM for the second.

`CCC(C(=O)Nc1ccc(-c2cncc(C(F)(F)F)n2)cn1)c1cccc(NS(=O)(=O)C2CC2)n1` (stereo not shown) [P187, 2-(6-(cyclopropanesulfonamido)pyridin-2-yl)-N-(5-(6-(trifluoromethyl)pyrazin-2-yl)pyridin-2-yl)butanamide] and `CCOc1cncc(-c2ccc(NC(=O)C(OC)c3cncc(NS(=O)(=O)C4CC4)n3)nc2)n1` (stereo not shown) [P203, 2-(6-(cyclopropanesulfonamido)pyrazin-2-yl)-N-(5-(6-ethoxypyrazin-2-yl)pyridin-2-yl)-2-methoxyacetamide] cannot be ordered by IC50: 100 to 1000 nM for the first, at most 100 nM for the second.

`CCOc1cncc(-c2ccc(NC(=O)C(C)(CCOC)c3cncc(NS(C)(=O)=O)n3)nc2)n1` (stereo not shown) [P199, N-(5-(6-ethoxypyrazin-2-yl)pyridin-2-yl)-4-methoxy-2-methyl-2-(6-(methylsulfonamido)pyrazin-2-yl)butanamide] and `CCOc1cncc(-c2ccc(NC(=O)C(C)(OC)c3cncc(NS(=O)(=O)C4CC4)n3)nc2)n1` (stereo not shown) [P205, 2-(6-(cyclopropanesulfonamido)pyrazin-2-yl)-N-(5-(6-ethoxypyrazin-2-yl)pyridin-2-yl)-2-methoxypropanamide] cannot be ordered by IC50: 100 to 1000 nM for the first, at most 100 nM for the second.

In the case of `CCOc1cncc(-c2ccc(NC(=O)C(OC)c3cncc(NS(=O)(=O)C4CC4)n3)cc2)n1` (stereo not shown) [P204, 2-(6-(cyclopropanesulfonamido)pyrazin-2-yl)-N-(4-(6-ethoxypyrazin-2-yl)phenyl)-2-methoxyacetamide], the IC50 is reported as at most 100 nM.
